Drawing on PubChem BioAssay (NCI), this text covers TGI for 17 compounds.

Holding throughout (assay): DTP human tumour cell line panel, 48 h
Experiment [1] concerns OVCAR-5 ovarian.
For experiment [2], the system named is UACC-257 melanoma.
Experiment [3] has as its system RPMI-8226 leukemia.
For experiment [4], the system named is SF-268 CNS.
The subject of experiment [5] is A549 NSCLC.
Experiment [6] relates to HOP-92 NSCLC.
Experiment [7] has as its system COLO 205 colon.
Experiment [8] concerns MDA-N.
For experiment [9], the system named is K-562 leukemia.
Experiment [10] relates to M14 melanoma.
In experiment [11] the test system is NCI-H522 lung.
Experiment [12] relates to A498 renal.
Experiment [13] concerns MDA-MB-231 breast.
Experiment [14] has as its system HCT-15 colon.
Experiment [15] relates to SK-MEL-28 melanoma.
Experiment [16] deals with BT-549 breast.
In experiment [17] the test system is SR leukemia.

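Grown in 96-well plates, cells were treated for 48 hours with each compound at five concentrations. Insufficient inhibition: endpoint recorded as highest concentration tested. At the TGI there is no net growth.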 Some results are limits rather than exact numbers.

As to `Cc1cn(CCCCCCC2=NCCCN2)c(=O)[nH]c1=O`, the TGI in [1], in experiment [2], in experiment [3], in experiment [4], in experiment [5] and in [6] was more than 100 µM in each case. The TGI in experiment [7], in experiment [8], in experiment [9], in experiment [10], in experiment [11] and in experiment [12] was more than 100 µM in each case. For the same compound, the TGI in experiment [13], in experiment [14], in experiment [15] and in experiment [16] was more than 100 µM each time.

Regarding `CC(=O)c1ccccc1NCC(=O)Nn1cnc2ccc(S(=O)(=O)Nc3ccccc3C(C)=O)cc2c1=O`, the TGI in experiment [1], in experiment [2], in experiment [3], in experiment [4], in experiment [5] and in experiment [6] was more than 100 µM in each case. The TGI in [7], in experiment [8], in experiment [9], in [10], in [17] and in experiment [11] was more than 100 µM in each case. For the same compound, the TGI in experiment [13], in [14], in [15] and in [16] was more than 100 µM throughout.

In the case of `O=c1sc2c(s1)-c1sc(=O)sc1SS2`, the TGI was more than 75.3 µM in experiment [1]; more than 100 µM in experiment [2]; more than 100 µM in experiment [3]; more than 100 µM in experiment [4]; more than 100 µM in experiment [5]; more than 100 µM in experiment [6]. For the same compound, the TGI in [7] is more than 65 µM; in experiment [8], more than 100 µM; in experiment [9] it was more than 100 µM; in experiment [10], more than 100 µM; in [11], more than 100 µM; in [12], more than 62.2 µM. Moreover, the TGI was more than 100 µM in experiment [13], more than 31.6 µM in experiment [14], more than 100 µM in [15] and more than 100 µM in [16].

Take `CCOC(=O)c1nc2ccccc2nc1Oc1ccc(C(=O)OC)cc1`: the TGI in [1], in experiment [2], in [3], in experiment [4], in experiment [5] and in [6] was more than 100 µM each time. Moreover, the TGI in experiment [7], in experiment [8], in [9], in [10], in experiment [12] and in experiment [13] was more than 100 µM in each case. Besides, the TGI in experiment [14], in [15] and in experiment [16] was more than 100 µM throughout.

For `Cc1ccc2c(=O)c(C(=O)Nn3c(C)csc3=S)c[nH]c2n1`, the TGI in experiment [1], in experiment [2], in experiment [3], in [4], in [5] and in experiment [7] was more than 100 µM throughout. The concentration for total growth inhibition (TGI) in experiment [8], in experiment [9], in experiment [10], in experiment [11], in experiment [12] and in experiment [13] was more than 100 µM in each case. The TGI in experiment [14], in experiment [15] and in [16] was more than 100 µM each time.

Take `Cc1ccc(C(=O)N(Cc2ccccc2)Cc2ccccc2)cc1N=NN(C)C`: the TGI in [1] is more than 100 µM; in experiment [2], 53.4 µM; in experiment [3], more than 100 µM; in [4], more than 100 µM; in experiment [5] it was more than 100 µM; in experiment [6], 70.1 µM. Further, the TGI in experiment [7] is 44.7 µM; in [8] it was more than 100 µM; in [9], more than 100 µM; in experiment [10], more than 81.2 µM; in experiment [17], more than 100 µM; in experiment [11] it was 38.7 µM. Moreover, the TGI in experiment [13] is 78 µM; in experiment [14], more than 90.1 µM; in experiment [15] it was more than 69.7 µM; in [16], 45.6 µM.

As to `CC(C)CCCC(C)[C@H]1CC[C@H]2[C@@H]3CC[C@H]4C[C@@H](CCC=C(c5cc(Cl)c(O)c(C(=O)OC(C)C)c5)c5cc(Cl)c(O)c(C(=O)OC(C)C)c5)CC[C@]4(C)[C@H]3CC[C@]12C` (stereo partly specified), the TGI in experiment [1], in experiment [3], in experiment [4], in experiment [5], in experiment [6] and in [7] was more than 50 µM each time. In addition, the concentration for total growth inhibition (TGI) in experiment [8], in [9], in experiment [10], in [12], in experiment [13] and in [14] was more than 50 µM each time. The TGI in experiment [15] and in experiment [16] was more than 50 µM throughout.

`CCOC(=O)c1c(-c2ccc(Cl)cc2)c(C#N)c(=S)n(C2OC(COC(C)=O)C(OC(C)=O)C(OC(C)=O)C2OC(C)=O)c1-c1ccccc1` (stereo unspecified): the TGI in experiment [1] is more than 100 µM; in [2], more than 100 µM; in experiment [3], more than 100 µM; in experiment [4], more than 100 µM; in [5], more than 100 µM; in experiment [6], 81.7 µM. Further, the TGI in experiment [7], in experiment [8], in experiment [9], in experiment [10], in experiment [17] and in [13] was more than 100 µM each time. The TGI in experiment [14], in experiment [15] and in experiment [16] was more than 100 µM throughout.

For the compound `C=CC(OC(C)=O)c1ccc(OC(=O)C(C)C)c(OC)c1` (stereo unspecified), the TGI stood at 6.29 µM in experiment [1]; 23.5 µM in [2]; 4.28 µM in [3]; 38.9 µM in [4]; 38.7 µM in [5]; 11.5 µM in [6]. The TGI in experiment [7] worked out at 7.65 µM; in experiment [8], 16.8 µM; in [9], 11.6 µM; in experiment [10], 17.3 µM; in [11], 3.01 µM; in experiment [12], 31 µM. In addition, the TGI in experiment [13] came out at 18.4 µM; in experiment [14] it was 20 µM; in experiment [15], 28.8 µM; in experiment [16], 16.4 µM.

For `COc1cc(C2c3cc4c(cc3OC(Nc3ccccc3)C2C)OCO4)cc(OC)c1O` (stereo unspecified), the TGI was determined as 26.2 µM in experiment [1]; 34 µM in experiment [2]; 9.86 µM in experiment [3]; 39.4 µM in [4]; 19.2 µM in experiment [5]; 48.7 µM in experiment [6]. Also, the TGI is 33.5 µM in experiment [7]; 3.01 µM in experiment [8]; 7.49 µM in [9]; 60.7 µM in experiment [10]; 9.16 µM in experiment [11]; 19.3 µM in [13]. Further, the TGI in experiment [14] came to 17.5 µM; in experiment [15], 28.4 µM; in experiment [16], 26 µM.

Regarding `CC(=O)OC(Cc1ccc2ccccc2n1)(C(F)(F)F)C(F)(F)F`, the TGI in experiment [1] was found to be 10.2 µM; in experiment [2], 0.328 µM; in [4] it was 7.54 µM; in experiment [5], 44.3 µM; in experiment [6] it was 0.933 µM; in experiment [7] it was 1.98 µM. Moreover, the TGI in [8] is 3.54 µM; in [9], more than 100 µM; in experiment [10], 3.48 µM; in [11], 2.16 µM; in experiment [12], 14.6 µM; in experiment [13], 4.12 µM. The values for the TGI in experiment [14], in experiment [15] and in experiment [16] were 7.46 µM, 4.03 µM and 4.17 µM, respectively.

`CCOC(=O)c1cc(I)c(-c2cc(C)no2)n1C`: the TGI in [1], in [2], in experiment [3], in experiment [4], in experiment [5] and in experiment [6] was more than 100 µM throughout. Besides, the TGI in experiment [7], in [8], in experiment [9], in experiment [10], in experiment [11] and in experiment [12] was more than 100 µM throughout. In addition, the TGI in experiment [13], in experiment [14], in experiment [15] and in experiment [16] was more than 100 µM in each case.

In the case of `COC1CC(OC2C(C)OC(OC3C(C)OC(OC4C(O)CC(O[C@H]5CC[C@@]6(C)C(=CC[C@]7(O)[C@@H]6C[C@@H](OC(C)=O)[C@@]6(C)[C@]7(O)CC[C@@]6(O)C(C)=O)C5)OC4C)CC3OC)CC2OC)OC(C)C1O` (stereo partly specified), the total growth inhibition concentration (TGI) in experiment [1], in experiment [2], in experiment [3], in experiment [4], in experiment [5] and in experiment [6] was more than 12.5 µM each time. Further, the concentration for total growth inhibition (TGI) in experiment [7], in [8], in [9], in [10], in experiment [17] and in experiment [11] was more than 12.5 µM throughout. Besides, the TGI in experiment [13], in experiment [14] and in experiment [16] was more than 12.5 µM throughout.

Take `CCO[C@@]1(COCc2ccccc2)OC(=O)C[C@@H]1N1C(=O)OC[C@@H]1c1ccccc1`: the concentration for total growth inhibition (TGI) in [1], in experiment [2], in [3], in experiment [4], in [5] and in experiment [6] was more than 100 µM throughout. Besides, the concentration for total growth inhibition (TGI) in experiment [7], in experiment [8], in [9], in experiment [10], in experiment [11] and in [12] was more than 100 µM in each case. The TGI in experiment [13], in experiment [14], in experiment [15] and in [16] was more than 100 µM each time.

On to `COc1cc(O)c2c(=O)c3c(C)cccc3n(C)c2c1`, for which the TGI in experiment [1], in experiment [2], in experiment [3], in [4], in experiment [5] and in [6] was more than 10 µM each time. Also, the total growth inhibition concentration (TGI) in [7], in experiment [8], in [9], in [10], in experiment [11] and in experiment [12] was more than 10 µM each time. Further, the TGI in experiment [13], in experiment [14], in experiment [15] and in experiment [16] was more than 10 µM in each case.

As for `O=C(c1ccccc1)n1cc(-c2ccccc2)c2c(=O)[nH]cnc21`, the TGI in [1], in experiment [2], in experiment [3], in [4], in [5] and in [6] was more than 100 µM each time. In addition, the concentration for total growth inhibition (TGI) in experiment [7], in [8], in experiment [10], in experiment [11], in [12] and in experiment [13] was more than 100 µM each time. The TGI in experiment [14], in experiment [15] and in [16] was more than 100 µM each time.

Consider `CSC1C(=O)Nc2ccc3ccccc3c21` (stereo unspecified), for which the TGI in experiment [1] is more than 100 µM; in [2] it was 44.8 µM; in experiment [3], 60.7 µM; in [4] it was 38 µM; in experiment [5], more than 100 µM; in experiment [6], 40.6 µM. Besides, the TGI in experiment [7] was 43.3 µM; in experiment [8], more than 100 µM; in experiment [10], 68.3 µM; in experiment [11], 7.29 µM; in experiment [13] it was 56.5 µM; in [14], 38.4 µM. The total growth inhibition concentration (TGI) in experiment [15] was more than 100 µM; in [16], 50.7 µM.
